Reference: US4875922A, “Pyrimidine derivatives” (Imperial Chemical Industries PLC, priority 1986, dated 1989)
Like-named read-outs stand apart in the source and are kept apart here.

Experiments:
[1] = system: Wheat; experiment: Whole plant screen for plant growth regulator activity, wheat (WW); assay type: in vivo, Wheat (Timmo); settings: WW, 4000 ppm (4 kg/ha), visual score after 2-6 weeks; for T = Tillering or side shooting: * = decrease in tillering
Description: (§1) Compounds 1 to 3 in Table 1 were tested for plant growth regulator activity against five species for various growth effects relevant to plant growth regulation.
(§2) The plant species used in this screen are presented in Table II with the leaf stage at which they were sprayed. Each chemical was applied at 4000 ppm (4 kg/ha in a 1000 l/ha field volume) using a tracksprayer and a SS8004E (Teejet) nozzle.
(§3) After spray the plants were grown in a glasshouse with 25° C. day/22° C. night temperatures and supplementary lighting was supplied when necessary (from mercury vapour lamps), to provide a 16 hour photoperiod. The exception to this were the temperate cereals, wheat and barley which were grown in 16° C. day/13° C. night temperatures.
(§4) After 2-6 weeks in the glasshouse, depending on the time of year, the plants were visually assessed for morphological characteristics. Formulation blanks were used as controls to assess the plants.
(§5) Additional compounds in Table I were tested for plant growth regulator activity using the method of Example 60 except that Tomato was included in the test as an additional species. Tomato, Ailsa Craig, was grown in a single 3 inch pot in peat and treated at the 2 to 21/2 leaves growth stage. The results were presented in Table IV in which Tomato is indicated by the code TO and the Key is otherwise as for Table III.

[2] = system: Tomato; experiment: Whole plant screen for plant growth regulator activity, tomato (TO); assay type: in vivo, Tomato (Ailsa Craig); settings: 4000 ppm (4 kg/ha), visual score after 2-6 weeks
Description: as §2, §3, §4, §5
An astrisk (*) after a score under "T" (tillering) indicated a decrease in tillering.

[3] = system: Apples; experiment: Intermediate Retardant Test, apples, foliar spray compared with root drench; assay type: in vivo, Apples (Red Delicious); settings: 672 h, read-out: Percentage Reduction in Height of Apples (Compared to formulation blank); for percent reduction in plant height at 2000 µg/mL: soil, 2000 pmm (Root), root drench
From the text: (§6) Three species are involved in this test RICE, SPRING-BARLEY and APPLES. The variety and growth stages at spray are outlined in Table V. Compounds were applied at 500 ppm and 2000 ppm respectively (0.5 kg and 2 kg/ha^-1 at a field volume of 1000 l/ha^-1) as an overall spray except in the case of certain tests on APPLES. This gives a foliar and root component in the test, i.e., this test will detect the activity of both root and foliar acting compounds. The intermediate retardant test on APPLES of which the results are given in Table IX was different, in that a foliar (only) spray at 2000 ppm was compared with a root drench, also at 2000 ppm. The rice was grown in 4" `paddy` pots, i.e., the roots and bottom of the stems are immersed in water under conditions corresponding to those in paddy fields. Spring barley and apples were grown in 4" pots. The plants were assessed for height to top-most ligule at approximately 28 days after treatment for spring barley and rice and for height to apex at approximately 28 days after the treatment for apples. In each case the result for the 500 ppm and 2000 ppm test for each compound is compared to the height of the formulation blank in that test, presented as a percentage reduction in height compared to the formulation blank.
(§7) The prior art compound was compared with compounds of the present invention in side-by-side comparisons using the Intermediate Retardant Test described in Example 62, and the results are given in Tables X to XII where `A` is the prior art compound, 2-methyl-1-isopropyl-1-(pyrimidin-5-yl)-propan-1-ol).

[4] = system: Rice; experiment: Intermediate Retardant Test, rice; assay type: in vivo, Rice (Ishikari); settings: Oryza sativa, 672 h, read-out: Percentage Reduction in Height of Rice (Compared to formulation blank)
From the text: as §6, §7

[5] = system: Rice; experiment: Whole plant screen for plant growth regulator activity, rice (RC); assay type: in vivo, Rice (Ishikari); settings: 4000 ppm (4 kg/ha), visual score after 2-6 weeks
Description: as §1, §2, §3, §4, §5

[6] = system: Spring Barley; experiment: Intermediate Retardant Test, spring barley; assay type: in vivo, Spring Barley (Atem/kym); settings: Hordeum vulgare, 672 h, read-out: Percentage Reduction in Height of Spring Barley (Compared to formulation blank)
From the text: as §6, §7

[7] = system: Apple; experiment: Whole plant screen for plant growth regulator activity, apple (AP); assay type: in vivo, Apple (Red Delicious); settings: 4000 ppm (4 kg/ha), visual score after 2-6 weeks
Description: as §1, §2, §3, §4, §5

[8] = system: Barley; experiment: Whole plant screen for plant growth regulator activity, barley (BR); assay type: in vivo, Barley (Atem); settings: BR, 4000 ppm (4 kg/ha), visual score after 2-6 weeks; for T = Tillering or side shooting: * = decrease in tillering
Description: as §1, §2, §3, §4, §5

[9] = 2000 ppm (Foliar), approximately 28 days, Table IX
[10] = approximately 28 days, Table IX
[11] = overall spray, approximately 28 days, Table VI
[12] = overall spray, approximately 28 days, Table VII
[13] = 2000 ppm (Foliar), side-by-side comparison with prior art compound, Table XII
[14] = 2000 ppm (Root), side-by-side comparison with prior art compound, Table XII
[15] = side-by-side comparison with prior art compound, Table X
[16] = side-by-side comparison with prior art compound, Table XI

SMILES | I = Interligular or internodal length reduction [1] | R = Retardation [1] | T = Tillering or side shooting [1] | I = Interligular or internodal length reduction [2] | R = Retardation [2] | percent reduction in plant height at 2000 ppm [3, 9] [%] | percent reduction in plant height at 2000 µg/mL [3, 10] [%] | Percent reduction in rice height vs formulation blank at 500 ppm [4, 11] [%] | Percent reduction in rice height vs formulation blank at 2000 ppm [4, 11] [%] | G = Greening effect [5] | I = Interligular or internodal length reduction [5] | R = Retardation [5] | percent reduction in plant height at 500 ppm [6, 12] [%] | percent reduction in plant height at 2000 ppm [6, 12] [%] | I = Interligular or internodal length reduction [7] | R = Retardation [7] | G = Greening effect [8] | I = Interligular or internodal length reduction [8] | R = Retardation [8] | T = Tillering or side shooting [8] | also measured
CC(C)CCC(O)(c1cncnc1)C(C)C (stereo not drawn) [Compound 13, 2-Methyl-1-(3-methylbutyl)-1-(pyrimidin-5-yl)-propan-1-ol] | 3 (61-100%) | 2 (31-60%) | 1 (10-30%) | 2 (31-60%) | 2 (31-60%) | 7 | 70 | 8 | 9 | 1 (10-30%) | 2 (31-60%) | 2 (31-60%) | 2 | 11 | 3 (61-100%) | 3 (61-100%) | 2 (31-60%) | 3 (61-100%) | 2 (31-60%) | 2 (31-60%) | G = Greening effect [7]: 2 (31-60%)
CC(C)C(O)(C#CC(C)(C)C)c1cncnc1 (stereo not drawn) [Compound 10, 2-Methyl-1-(3,3-dimethylbut-1-yne)-1-(pyrmidin-5-yl)propan-1-ol] | 3 (61-100%) | 2 (31-60%) | 1 (10-30%) | – | – | 4 | 69 | 9 | 20 | 1 (10-30%) | 2 (31-60%) | 2 (31-60%) | 29 | 62 | 3 (61-100%) | 2 (31-60%) | 2 (31-60%) | 3 (61-100%) | 2 (31-60%) | 2 (31-60%) | G = Greening effect [1]: 2 (31-60%)
CCC(C)C#CC(O)(c1cncnc1)C(C)C (stereo not drawn) [Compound 5, 2-Methyl-1-(3-methylpent-1-yne)-1-(pyrimidin-5-yl)-propan-1-ol] | 3 (61-100%) | 3 (61-100%) | 1 (10-30%) | 2 (31-60%) | 2 (31-60%) | 25.6 | 76.1 | 39 | 68 | – | 2 (31-60%) | 2 (31-60%) | 38 | 72 | – | – | 1 (10-30%) | 3 (61-100%) | 3 (61-100%) | 3 (61-100%) | G = Greening effect [1]: 2 (31-60%); G = Greening effect [2]: 2 (31-60%); T = Tillering or side shooting ([5]; * = decrease in tillering): 1 (10-30%)
CC(C)C#CC(O)(c1cncnc1)C(C)(C)C (stereo not drawn) [Compound 18, 2,2-Dimethyl-1-(3-methylbut-1-yne)-1-(pyrimdin-5-yl)-propan-1-ol] | 3 (61-100%) | 2 (31-60%) | 2 (31-60%) | 3 (61-100%) | 3 (61-100%) | 0 | 69 | 13 | 15 | 1 (10-30%) | 3 (61-100%) | 3 (61-100%) | 17 | 55 | 3 (61-100%) | 3 (61-100%) | 2 (31-60%) | 3 (61-100%) | 2 (31-60%) | 3 (61-100%) | G = Greening effect [7]: 2 (31-60%)
CC(C)C(O)(c1cncnc1)C(C)C [A, 2-methyl-1-isopropyl-1-(pyrimidin-5-yl)-propan-1-ol, reference compound] | – | – | – | – | – | – | – | – | – | – | – | – | – | – | – | – | – | – | – | – | percent reduction in plant height at 2000 ppm [3, 13]: 0%; percent reduction in plant height at 2000 ppm [3, 14]: 23.5%; Percent reduction in rice height vs formulation blank at 500 ppm [4, 15]: 2%; Percent reduction in rice height vs formulation blank at 2000 ppm [4, 15]: 0%; percent reduction in plant height at 500 ppm [6, 16]: 0%; percent reduction in plant height at 2000 ppm [6, 16]: 0%
CCC(C)CC#CC(O)(c1cncnc1)C(C)C (stereo not drawn) [Compound 11, 2-Methyl-1-(4-methylhex-1-yne)-1-(pyrimidin-5-yl)propan-1-ol] | – | – | – | – | – | 6 | 55 | 4 | 14 | – | – | – | 5 | 47 | – | – | – | – | – | – | –
CC(C)CC#CC(O)(c1cncnc1)C(C)C (stereo not drawn) [Compound 4, 2-methyl-1-(4-methylpent-1-yne)-1-(pyrimidin-5-yl)-propan-1-ol] | – | – | – | – | – | – | – | – | – | – | – | – | – | – | – | – | – | – | – | – | percent reduction in plant height at 2000 ppm [3, 13]: 46.8%; percent reduction in plant height at 2000 ppm [3, 14]: 64.6%; Percent reduction in rice height vs formulation blank at 500 ppm [4, 15]: 45%; Percent reduction in rice height vs formulation blank at 2000 ppm [4, 15]: 66%; percent reduction in plant height at 500 ppm [6, 16]: 53%; percent reduction in plant height at 2000 ppm [6, 16]: 64%
CCCCCC(O)(c1cncnc1)C(C)(C)C (stereo not drawn) [Compound 15, 2,2-Dimethyl-1-(pentyl)-1-(pyrimidin-5-yl)-propan-1-ol] | 3 (61-100%) | 2 (31-60%) | 1 (10-30%) | 2 (31-60%) | 2 (31-60%) | 44.2 | 71.1 | 13 | 39 | – | – | – | 14 | 33 | – | – | – | 2 (31-60%) | 2 (31-60%) | – | G = Greening effect [1]: 1 (10-30%); G = Greening effect [2]: 2 (31-60%)
